# Reference: PubChem BioAssay AID1963977 (Molecular Pharmacology Branch, DTP, NCI, 2024)
# Tested on: 624824-186-R-J3-PDC multicell spheroids, viability
# Assay: Anticancer human tumor 624824-186-R-J3-PDC patient-derived colon adenocarcinoma cell line growth inhibition [PI3K]
# Conditions: for viability, T/C: stronger effect = lower value
# Procedure, shortened: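 Targeted small molecules plus PI3K inhibitors, half-log dose series from Cmax (default top 10 microM), were applied to heterotypic spheroids of cancer cells with HUVEC and MSCs. Viability indicated growth inhibition.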
# 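Also: spheroids exposed to agents for seven days before luminescence read.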
# 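For viability, T/C in this document: luminescent signal used as a stand-in for spheroid viability; percent viability relative to DMSO vehicle control wells taken as 100%.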
structure (smiles),measurement,setting,value
Cn1nccc1Nc1nccc(-c2ccn(C(CO)c3ccc(Cl)c(F)c3)c(=O)c2)n1 (centres undefined) + CC(Nc1ncnc2nc[nH]c12)c1cc2cccc(Cl)c2c(=O)n1-c1ccccc1,IC50,"curve of first compound, second compound 0.0316 µM",> 10 µM
same,IC50,"curve of first compound, second compound 0.1 µM",> 10 µM
same,IC50,"curve of first compound, second compound 0.316 µM",> 10 µM
same,IC50,"curve of first compound, second compound 1 µM",9.34 µM
same,IC50,"curve of first compound, second compound 3.16 µM",2.84 µM
same,IC50,"curve of first compound, second compound 10 µM",0.633 µM
same,"viability, T/C","second compound 0.0316 µM, first compound 0.0316 µM",103%
same,"viability, T/C","second compound 0.0316 µM, first compound 0.1 µM",93.9%
same,"viability, T/C","second compound 0.0316 µM, first compound 0.316 µM",95.1%
same,"viability, T/C","second compound 0.0316 µM, first compound 1 µM",76.9%
same,"viability, T/C","second compound 0.0316 µM, first compound 3.16 µM",61.2%
same,"viability, T/C","second compound 0.0316 µM, first compound 10 µM",57.4%
same,"viability, T/C","second compound 0.1 µM, first compound 0.0316 µM",103%
same,"viability, T/C","second compound 0.1 µM, first compound 0.1 µM",85.4%
same,"viability, T/C","second compound 0.1 µM, first compound 0.316 µM",94.5%
same,"viability, T/C","second compound 0.1 µM, first compound 1 µM",74%
same,"viability, T/C","second compound 0.1 µM, first compound 3.16 µM",61.2%
same,"viability, T/C","second compound 0.1 µM, first compound 10 µM",57.3%
same,"viability, T/C","second compound 0.316 µM, first compound 0.0316 µM",89.7%
same,"viability, T/C","second compound 0.316 µM, first compound 0.1 µM",88%
same,"viability, T/C","second compound 0.316 µM, first compound 0.316 µM",87%
same,"viability, T/C","second compound 0.316 µM, first compound 1 µM",72.7%
same,"viability, T/C","second compound 0.316 µM, first compound 3.16 µM",62.6%
same,"viability, T/C","second compound 0.316 µM, first compound 10 µM",51.8%
same,"viability, T/C","second compound 1 µM, first compound 0.0316 µM",98.5%
same,"viability, T/C","second compound 1 µM, first compound 0.1 µM",88.2%
same,"viability, T/C","second compound 1 µM, first compound 0.316 µM",91.2%
same,"viability, T/C","second compound 1 µM, first compound 1 µM",77.7%
same,"viability, T/C","second compound 1 µM, first compound 3.16 µM",61.8%
same,"viability, T/C","second compound 1 µM, first compound 10 µM",49.4%
same,"viability, T/C","second compound 3.16 µM, first compound 0.0316 µM",103%
same,"viability, T/C","second compound 3.16 µM, first compound 0.1 µM",88.1%
same,"viability, T/C","second compound 3.16 µM, first compound 0.316 µM",74.8%
same,"viability, T/C","second compound 3.16 µM, first compound 1 µM",63%
same,"viability, T/C","second compound 3.16 µM, first compound 3.16 µM",47.4%
same,"viability, T/C","second compound 3.16 µM, first compound 10 µM",38.5%
same,"viability, T/C","second compound 10 µM, first compound 0.0316 µM",89.6%
same,"viability, T/C","second compound 10 µM, first compound 0.1 µM",81.7%
same,"viability, T/C","second compound 10 µM, first compound 0.316 µM",59.4%
same,"viability, T/C","second compound 10 µM, first compound 1 µM",43.5%
same,"viability, T/C","second compound 10 µM, first compound 3.16 µM",35.5%
same,"viability, T/C","second compound 10 µM, first compound 10 µM",30.2%
CCCS(=O)(=O)Nc1ccc(F)c(C(=O)c2c[nH]c3ncc(-c4ccc(Cl)cc4)cc23)c1F,"viability, T/C",compound 0.0316 µM,99.1% [middle of 4 runs]
same,"viability, T/C",compound 0.1 µM,97.5% [middle of 4 runs]
same,"viability, T/C",compound 0.316 µM,102% [middle of 4 runs]
same,"viability, T/C",compound 1 µM,95.5% [middle of 4 runs]
same,"viability, T/C",compound 3.16 µM,86% [middle of 4 runs]
same,"viability, T/C",compound 10 µM,11.9% [middle of 4 runs]
same,IC50,curve of compound,5.47 µM [middle of 4 runs]
